Some targets named below: DYRK2 (Homo sapiens, UniProt Q92630); SRC (Homo sapiens, UniProt P12931); FYN (Homo sapiens, UniProt P06241); EPHA7 (Homo sapiens, UniProt Q15375); BMPR2 (Homo sapiens, UniProt Q13873); PIM1 (Homo sapiens, UniProt P11309); TSSK1B (Homo sapiens, UniProt Q9BXA7); PIK3CD (Homo sapiens, UniProt O00329); EPHA8 (Homo sapiens, UniProt P29322); PLK4 (Homo sapiens, UniProt O00444); PDPK1 (Homo sapiens, UniProt O15530); FGFR1 (Homo sapiens, UniProt P11362).

Holding throughout (experiment): biochemical
Holding throughout (design): KINOMEscan scanMAX competition binding, DNA-tagged kinases, qPCR read-out, percent control at 300 nM
A general note: Real-time PCR tracks product formation cycle by cycle.

The target of the next assay is T1, HUNK (Homo sapiens, UniProt P57058).
T1 sequence (P57058 1-714): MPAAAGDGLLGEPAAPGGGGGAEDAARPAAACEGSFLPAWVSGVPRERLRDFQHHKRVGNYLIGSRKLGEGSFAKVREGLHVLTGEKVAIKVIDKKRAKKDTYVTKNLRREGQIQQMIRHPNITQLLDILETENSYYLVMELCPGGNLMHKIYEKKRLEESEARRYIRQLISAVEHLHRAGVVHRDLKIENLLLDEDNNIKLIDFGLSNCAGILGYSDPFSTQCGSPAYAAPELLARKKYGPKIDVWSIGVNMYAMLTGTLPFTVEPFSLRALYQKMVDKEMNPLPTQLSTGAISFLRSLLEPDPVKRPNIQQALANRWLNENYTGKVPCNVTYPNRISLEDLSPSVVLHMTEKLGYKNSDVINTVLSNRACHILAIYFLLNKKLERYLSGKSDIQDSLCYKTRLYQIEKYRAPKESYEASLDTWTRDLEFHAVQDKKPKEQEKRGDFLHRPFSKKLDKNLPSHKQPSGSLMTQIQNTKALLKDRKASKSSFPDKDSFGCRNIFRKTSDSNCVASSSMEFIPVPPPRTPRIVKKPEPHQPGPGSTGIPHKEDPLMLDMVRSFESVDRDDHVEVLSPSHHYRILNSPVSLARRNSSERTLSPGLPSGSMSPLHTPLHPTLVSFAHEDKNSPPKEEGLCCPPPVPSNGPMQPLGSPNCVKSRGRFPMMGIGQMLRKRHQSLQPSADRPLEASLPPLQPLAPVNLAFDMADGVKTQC

In a further assay the target is T2, MLK2 (Homo sapiens, UniProt Q02779).
T2 construct: gene MAP3K10
T2 sequence (Q02779 whole entry): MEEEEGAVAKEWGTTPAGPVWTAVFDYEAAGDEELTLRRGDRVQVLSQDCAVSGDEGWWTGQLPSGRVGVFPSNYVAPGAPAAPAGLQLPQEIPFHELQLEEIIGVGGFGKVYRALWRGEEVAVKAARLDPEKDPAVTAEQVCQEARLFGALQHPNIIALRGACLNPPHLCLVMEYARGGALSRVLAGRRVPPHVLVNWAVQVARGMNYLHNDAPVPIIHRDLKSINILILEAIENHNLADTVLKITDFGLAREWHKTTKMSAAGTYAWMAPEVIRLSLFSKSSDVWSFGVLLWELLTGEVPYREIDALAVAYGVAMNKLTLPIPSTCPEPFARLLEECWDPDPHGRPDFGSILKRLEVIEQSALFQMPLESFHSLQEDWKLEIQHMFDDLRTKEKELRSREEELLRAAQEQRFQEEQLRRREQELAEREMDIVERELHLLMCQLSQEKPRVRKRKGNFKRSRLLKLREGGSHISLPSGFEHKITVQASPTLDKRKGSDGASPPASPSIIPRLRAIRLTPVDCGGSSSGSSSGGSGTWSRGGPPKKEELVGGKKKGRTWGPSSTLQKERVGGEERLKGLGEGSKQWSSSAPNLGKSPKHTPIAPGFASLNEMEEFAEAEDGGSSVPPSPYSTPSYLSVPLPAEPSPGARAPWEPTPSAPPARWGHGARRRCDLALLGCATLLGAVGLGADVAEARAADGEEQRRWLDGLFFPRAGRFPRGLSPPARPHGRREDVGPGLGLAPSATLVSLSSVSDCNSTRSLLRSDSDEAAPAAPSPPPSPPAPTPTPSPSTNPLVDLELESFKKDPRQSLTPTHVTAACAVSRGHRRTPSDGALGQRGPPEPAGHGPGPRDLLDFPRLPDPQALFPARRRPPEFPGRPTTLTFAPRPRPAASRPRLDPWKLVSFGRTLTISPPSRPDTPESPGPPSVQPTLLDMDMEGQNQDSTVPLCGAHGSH

For a further assay, the target named is T3, CDK4-cyclinD3 (Homo sapiens, UniProt P11802).
T3 construct: cyclinD3

The next assay has as its target T4, PKAC-alpha (Homo sapiens, UniProt P17612).
T4 construct: gene PRKACA

Assay [1] deals with T5, RSK4(Kin.Dom.1-N-terminal) (Homo sapiens, UniProt Q9UK32).
T5 construct: gene RPS6KA6; Kin.Dom.1-N-terminal

For another assay, the target named is T6, AMPK-alpha1 (Homo sapiens, UniProt Q13131).
T6 construct: gene PRKAA1

[2] abbreviates: read-out: Percent control / Tirabrutinib.
[3] abbreviates: read-out: Percent control / Acalabrutinib.
[4] abbreviates: read-out: Percent control / Ibrutinib.
The mark [5] stands for this setting: read-out: Percent control / Zanubrutinib.

Like-named read-outs stand apart in the source and are kept apart here.

Sequence of TSSK1B (Q9BXA7 whole entry): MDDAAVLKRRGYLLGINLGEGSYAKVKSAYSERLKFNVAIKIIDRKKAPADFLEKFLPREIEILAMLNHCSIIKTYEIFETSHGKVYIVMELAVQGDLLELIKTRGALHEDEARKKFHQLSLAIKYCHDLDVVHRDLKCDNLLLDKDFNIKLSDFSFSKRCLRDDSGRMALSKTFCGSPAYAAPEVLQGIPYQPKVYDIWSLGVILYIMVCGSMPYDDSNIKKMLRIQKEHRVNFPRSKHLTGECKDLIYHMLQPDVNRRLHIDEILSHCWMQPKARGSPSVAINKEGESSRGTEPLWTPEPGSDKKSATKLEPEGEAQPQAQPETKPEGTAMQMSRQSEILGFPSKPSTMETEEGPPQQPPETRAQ
Sequence of PDPK1 (O15530 whole entry): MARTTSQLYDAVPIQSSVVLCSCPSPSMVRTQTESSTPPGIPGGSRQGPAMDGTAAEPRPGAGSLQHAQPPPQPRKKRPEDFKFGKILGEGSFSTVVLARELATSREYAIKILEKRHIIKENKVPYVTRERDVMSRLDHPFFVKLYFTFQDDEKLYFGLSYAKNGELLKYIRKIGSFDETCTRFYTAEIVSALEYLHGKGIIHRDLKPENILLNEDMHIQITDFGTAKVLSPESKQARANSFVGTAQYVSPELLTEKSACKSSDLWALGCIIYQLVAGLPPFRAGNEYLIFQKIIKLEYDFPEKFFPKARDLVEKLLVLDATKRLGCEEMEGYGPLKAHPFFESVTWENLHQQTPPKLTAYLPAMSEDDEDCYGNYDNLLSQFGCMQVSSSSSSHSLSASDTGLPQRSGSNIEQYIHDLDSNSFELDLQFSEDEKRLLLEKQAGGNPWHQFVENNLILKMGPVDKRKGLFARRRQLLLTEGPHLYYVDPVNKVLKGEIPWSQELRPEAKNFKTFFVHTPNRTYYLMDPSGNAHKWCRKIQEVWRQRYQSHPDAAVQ
Sequence of DYRK2 (Q92630 whole entry): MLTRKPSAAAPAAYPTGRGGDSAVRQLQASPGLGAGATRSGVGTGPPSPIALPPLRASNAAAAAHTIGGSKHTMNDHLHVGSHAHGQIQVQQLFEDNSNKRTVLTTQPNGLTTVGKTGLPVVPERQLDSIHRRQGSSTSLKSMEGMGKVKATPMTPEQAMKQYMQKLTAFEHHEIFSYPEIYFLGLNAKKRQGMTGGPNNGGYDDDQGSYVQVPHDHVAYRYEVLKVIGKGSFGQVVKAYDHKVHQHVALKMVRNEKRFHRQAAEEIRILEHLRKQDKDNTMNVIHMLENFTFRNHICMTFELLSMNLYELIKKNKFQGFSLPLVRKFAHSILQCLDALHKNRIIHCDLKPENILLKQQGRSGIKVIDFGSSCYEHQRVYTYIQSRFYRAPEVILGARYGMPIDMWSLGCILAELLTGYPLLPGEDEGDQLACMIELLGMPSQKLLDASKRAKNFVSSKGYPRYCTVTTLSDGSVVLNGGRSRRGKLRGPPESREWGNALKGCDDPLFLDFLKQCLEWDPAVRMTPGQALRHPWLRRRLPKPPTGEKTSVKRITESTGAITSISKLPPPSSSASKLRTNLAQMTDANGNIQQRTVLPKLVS
Sequence of EPHA7 (Q15375 whole entry): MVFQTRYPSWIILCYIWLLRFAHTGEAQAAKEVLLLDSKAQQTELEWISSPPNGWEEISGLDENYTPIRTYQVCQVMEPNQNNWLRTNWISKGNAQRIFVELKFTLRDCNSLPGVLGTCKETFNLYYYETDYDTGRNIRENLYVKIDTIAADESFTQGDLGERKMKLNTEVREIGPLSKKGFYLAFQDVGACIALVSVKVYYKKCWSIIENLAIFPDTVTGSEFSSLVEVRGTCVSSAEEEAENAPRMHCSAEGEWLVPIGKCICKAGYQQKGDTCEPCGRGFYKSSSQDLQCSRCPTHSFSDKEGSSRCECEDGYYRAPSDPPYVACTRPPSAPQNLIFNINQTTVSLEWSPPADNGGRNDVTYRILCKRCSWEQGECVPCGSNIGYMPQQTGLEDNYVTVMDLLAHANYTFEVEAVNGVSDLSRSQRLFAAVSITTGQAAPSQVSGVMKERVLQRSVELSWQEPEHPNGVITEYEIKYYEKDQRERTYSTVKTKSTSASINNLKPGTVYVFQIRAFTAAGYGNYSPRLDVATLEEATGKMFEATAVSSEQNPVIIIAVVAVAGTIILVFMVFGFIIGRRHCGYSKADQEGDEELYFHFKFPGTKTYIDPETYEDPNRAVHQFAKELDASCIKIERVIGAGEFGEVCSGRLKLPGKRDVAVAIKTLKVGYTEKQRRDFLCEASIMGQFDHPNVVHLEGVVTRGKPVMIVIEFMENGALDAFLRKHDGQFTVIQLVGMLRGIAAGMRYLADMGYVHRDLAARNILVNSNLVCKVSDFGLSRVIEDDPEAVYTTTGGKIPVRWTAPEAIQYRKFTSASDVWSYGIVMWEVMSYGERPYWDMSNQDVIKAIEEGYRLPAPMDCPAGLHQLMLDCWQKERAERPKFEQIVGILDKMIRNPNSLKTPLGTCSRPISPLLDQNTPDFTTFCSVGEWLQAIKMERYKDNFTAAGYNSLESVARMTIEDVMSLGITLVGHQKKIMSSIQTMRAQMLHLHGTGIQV
Sequence of FGFR1 (P11362 whole entry): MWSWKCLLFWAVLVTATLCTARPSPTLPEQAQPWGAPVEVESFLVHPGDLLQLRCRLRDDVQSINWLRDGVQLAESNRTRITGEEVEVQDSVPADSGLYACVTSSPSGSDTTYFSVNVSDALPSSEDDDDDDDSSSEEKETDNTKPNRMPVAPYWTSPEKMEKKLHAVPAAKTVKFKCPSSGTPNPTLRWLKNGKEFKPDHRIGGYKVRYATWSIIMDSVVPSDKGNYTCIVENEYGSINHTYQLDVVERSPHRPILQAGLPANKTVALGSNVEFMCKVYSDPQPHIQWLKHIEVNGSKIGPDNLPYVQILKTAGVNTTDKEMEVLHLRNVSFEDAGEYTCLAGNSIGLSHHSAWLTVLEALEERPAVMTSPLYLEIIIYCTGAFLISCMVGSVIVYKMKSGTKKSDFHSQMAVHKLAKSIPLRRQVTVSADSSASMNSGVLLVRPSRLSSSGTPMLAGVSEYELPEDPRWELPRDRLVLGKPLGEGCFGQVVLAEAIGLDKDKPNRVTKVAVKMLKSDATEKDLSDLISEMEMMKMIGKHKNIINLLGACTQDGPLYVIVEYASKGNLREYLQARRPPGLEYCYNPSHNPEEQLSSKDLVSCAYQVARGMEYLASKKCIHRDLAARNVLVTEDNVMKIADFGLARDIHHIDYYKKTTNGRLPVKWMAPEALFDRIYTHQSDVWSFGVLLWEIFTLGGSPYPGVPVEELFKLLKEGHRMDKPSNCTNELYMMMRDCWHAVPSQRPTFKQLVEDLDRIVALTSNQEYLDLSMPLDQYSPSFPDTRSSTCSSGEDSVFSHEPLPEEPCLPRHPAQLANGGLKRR
Sequence of PIM1 (P11309 whole entry): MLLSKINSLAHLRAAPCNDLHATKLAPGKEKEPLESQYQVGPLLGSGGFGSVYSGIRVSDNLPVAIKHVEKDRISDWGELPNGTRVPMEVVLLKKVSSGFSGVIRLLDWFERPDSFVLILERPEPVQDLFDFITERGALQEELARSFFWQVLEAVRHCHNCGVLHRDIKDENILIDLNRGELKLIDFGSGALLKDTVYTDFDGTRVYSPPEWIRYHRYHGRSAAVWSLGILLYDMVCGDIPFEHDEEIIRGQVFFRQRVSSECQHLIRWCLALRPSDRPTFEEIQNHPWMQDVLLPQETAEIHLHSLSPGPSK

Turning to `CC#CC(=O)N1CC[C@@H](n2c(=O)n(-c3ccc(Oc4ccccc4)cc3)c3c(N)ncnc32)C1` [Tirabrutinib], the remaining binding at 0.3 µM amounted to 99% on DYRK2 (setting [2]), 95% on SRC (setting [2]), 11% at HUNK (setting [2]) and 77% on MLK2 (setting [2]).

In the case of `CC#CC(=O)N1CCC[C@H]1c1nc(-c2ccc(C(=O)Nc3ccccn3)cc2)c2c(N)nccn12` [Acalabrutinib], the remaining binding at 0.3 µM at CDK4-cyclinD3 (setting [3]) came to 97%; on FYN (setting [3]) it was 95%; on SRC (setting [3]), 99%; on EPHA7 (setting [3]), 99%; on BMPR2 (setting [3]), 99%; at PIM1 (setting [3]), 94%. Besides, the remaining binding at 0.3 µM on TSSK1B (setting [3]) was found to be 93%; at PKAC-alpha (setting [3]), 99%; on PIK3CD (setting [3]), 88%; in assay [1] (setting [3]), 82%; at EPHA8 (setting [3]), 96%.

With `C=CC(=O)N1CCC[C@@H](n2nc(-c3ccc(Oc4ccccc4)cc3)c3c(N)ncnc32)C1` [Ibrutinib], the remaining binding at 0.3 µM at AMPK-alpha1 (setting [4]) is 92%; at PLK4 (setting [4]), 86%; at FYN (setting [4]), 19%; on PDPK1 (setting [4]), 99%; on FGFR1 (setting [4]), 66%; on HUNK (setting [4]), 9%. For the same compound, the remaining binding at 0.3 µM at MLK2 (setting [4]) was determined as 90%.

Take `C=CC(=O)N1CCC([C@@H]2CCNc3c(C(N)=O)c(-c4ccc(Oc5ccccc5)cc4)nn32)CC1` [Zanubrutinib]: the remaining binding at 0.3 µM on CDK4-cyclinD3 (setting [5]) was determined as 98%; at AMPK-alpha1 (setting [5]), 88%; on PLK4 (setting [5]) it was 84%; on DYRK2 (setting [5]), 81%; on PDPK1 (setting [5]), 100%; on FGFR1 (setting [5]), 68%. Besides, the remaining binding at 0.3 µM on EPHA7 (setting [5]) worked out at 97%; on BMPR2 (setting [5]), 93%; at PIM1 (setting [5]) it was 73%; on TSSK1B (setting [5]) it was 100%; at PKAC-alpha (setting [5]) it was 99%; on PIK3CD (setting [5]) it was 37%. Moreover, the figures for the remaining binding at 0.3 µM (in assay [1] (setting [5]); on EPHA8 (setting [5])) were 100% and 90%, respectively.

Values taken from article PMC10004634 (PLOS ONE, 2023).
